In paper PMC6792352, “Limited Chemical Structural Diversity Found to Modulate Thyroid Hormone Receptor in the Tox21 Chemical Library” (Environmental Health Perspectives, 2019):
Where a name gives a salt, the structure may show the parent alone. Positions of bridges follow the written chain, without caps; N, C: chain ends. Non-standard residues stand in square brackets, D forms with d. Residues, ends and D or L forms follow the SMILES beside them. Orn = NCCC[C@H](N)C(=O)O; Mpa = O=C(O)CCS

Experiment: in vitro
Conditions: rat, gh3-tre-luc cells, AC50 (uM) modified / 1000

| SMILES | CC50 at 24 h [µM] |
| --- | --- |
| CCCCCCCC(=O)OCC(O)CO (stereo not drawn) [Glyceryl monooctanoate] | > 90 |
| CCN(CC)CCc1nc(-c2ccccc2)no1 [Oxalamine citrate] | > 20 |
| CN(C)CCC(c1ccccc1)c1ccccn1 (stereo not drawn) [Pheniramine maleate] | > 90 |
| COc1ccc(C2C(=O)c3ccccc3C2=O)cc1 [Anisindione] | > 50 |
| CCOc1cc(C(C)(C)C)ccc1C1COC(c2c(F)cccc2F)=N1 (stereo not drawn) [Etoxazole] | 17.5 |
| CCCCOCC(C)O (stereo not drawn) [1-Butoxy-2-propanol] | > 90 |
| Clc1ccccn1 [2-Chloropyridine] | > 90 |
| c1ccc2c(c1)CCCC2 [Tetralin] | > 90 |
| COc1cccc2c1cc([N+](=O)[O-])c1c(C(=O)O)cc3c(c12)OCO3 [Sodium aristolochate-I] | 5.9 |
| C[N+]12CCC(CC1)C(OC(=O)C(O)(c1ccccc1)c1ccccc1)C2 (stereo not drawn) [Clidinium bromide] | > 20 |
| CC(C)N1C(=O)N(c2ccccc2)CS/C1=N\C(C)(C)C [Buprofezin] | 45.1 |
| O=C1CCCN1C1CCCCC1 [1-Cyclohexylpyrrolidin-2-one] | > 90 |
| C=CCNC1=C2C[C@@H](C)C[C@H](OC)[C@H](O)[C@@H](C)/C=C(\C)[C@H](OC(N)=O)[C@@H](OC)/C=C\C=C(/C)C(=O)NC(=CC1=O)C2=O [Tanespimycin] | > 50 |
| NCCc1c[nH]cn1 [Histamine] | > 50 |
| COc1nccnc1NS(=O)(=O)c1ccc(N)cc1 [Sulfalene] | > 50 |
| CC(C)(C)c1ccc(OCC2CO2)cc1 (stereo not drawn) [tert-Butyl phenyl glycidyl ether] | > 90 |
| CC[C@@]1(O)C(=O)OCc2c1cc1n(c2=O)Cc2cc3c(CN(C)C)c(O)ccc3nc2-1 [Topotecan hydrochloride] | > 50 |
| ONc1ccccc1 [N-Phenylhydroxylamine] | > 100 |
| O=C(CCCN1CCC(n2c(O)nc3ccccc32)CC1)c1ccc(F)cc1 [Benperidol] | > 20 |
| Cc1ccc2oc(CN(Cc3ccccc3)C(=O)Nc3c(F)cc(F)cc3F)c(-c3ccc(Cl)cc3)c2c1 [FR145237] | > 80 |
| CCCC(CCC)C(N)=O [Valpromide] | > 50 |
| CCCCCCCCCCOC(=O)c1ccccc1C(=O)OCCCCCCCC [Octyl decyl phthalate] | > 90 |
| CC[C@H]1CN2CCc3cc(OC)c(OC)cc3[C@@H]2C[C@@H]1C[C@H]1NCCc2cc(OC)c(OC)cc21 [Emetine dihydrochloride] | 0.065 |
| CCOC(=O)CN[C@@H](C(=O)N1CC[C@H]1C(=O)NCc1ccc(/C(N)=N\O)cc1)C1CCCCC1 [Ximelagatran] | > 50 |

| SMILES | CC50 at 24 h [µM] |
| --- | --- |
| COc1cc(C(=O)NC2CCCNC2)cc(OC)c1OC (stereo not drawn) [Troxipide] | > 50 |
| NC(N)=S [Thiourea] | > 90 |
| CC(=O)c1ccc2c(c1)[C@H](NC(=O)c1ccc(F)cc1)[C@@H](O)C(C)(C)O2 [Carabersat] | 51.8 |
| CN(C/C=C/c1ccccc1)Cc1cccc2ccccc12 [Naftifine hydrochloride] | 25 |
| Cc1ccc(S)cc1 [4-Thiocresol] | > 90 |
| C=CC(=O)OCCCCCCCC(C)C [Isodecyl acrylate] | > 90 |
| CC(C)(CO)CO [2,2-Dimethylpropane-1,3-diol] | > 90 |
| CC1(C)CC(N=C=O)CC(C)(CN=C=O)C1 (stereo not drawn) [Isophorone diisocyanate] | > 90 |
| O=S(=O)(O)CCS [Sodium 2-mercaptoethanesulfonate] | > 90 |
| C[Si]1(C)N[Si](C)(C)N[Si](C)(C)N1 [2,2,4,4,6,6-Hexamethyl-1,3,5,2,4,6-triazatrisilinane] | > 90 |
| CCCCCCCCCCCCOCCO [2-(Dodecyloxy)ethanol] | > 90 |
| CCCCCCCCOCCC#N [3-(Octyloxy)propanenitrile] | > 90 |
| CC[N+](C)(CC)CCOC(=O)C(O)(c1ccccc1)c1ccccc1 [Benzactyzine methobromide] | > 50 |
| CCCCCCCCCCCCCCCCCC(=O)OCC(C)O (stereo not drawn) [Octadecanoic acid, monoester with 1,2-propanediol] | 20.7 |
| NCC[C@H](O)C(=O)N[C@@H]1C[C@H](N)[C@@H](O[C@H]2O[C@H](CN)[C@@H](O)[C@H](O)[C@H]2O)[C@H](O)[C@H]1O[C@H]1O[C@H](CO)[C@@H](O)[C@H](N)[C@H]1O [Amikacin] | > 50 |
| CO[C@@H]1COCC[C@@H]1N[C@@H]1CC[C@@](C(=O)N2CCc3ncc(C(F)(F)F)cc3C2)(C(C)C)C1 [MK-812] | > 90 |
| O=C1c2ccccc2C(=O)c2cc(O)ccc21 [2-Hydroxyanthraquinone] | > 90 |
| O=C1CCCCCCCCCCC1 [Cyclododecanone] | > 90 |
| CC(C)(C#N)N=NC(C)(C)C#N [Azobisisobutyronitrile] | > 90 |
| COc1ccc(/C=C/C(=O)c2ccc(OC)cc2OC)cc1 [Metochalcone] | 46.1 |
| N=C(N)NCCC[C@H](N)C(=O)O [L-Arginine] | > 50 |
| CC(=O)Oc1ccc(C2(c3ccc(OC(C)=O)cc3)Oc3ccccc3NC2=O)cc1 [Bisoxatin acetate] | 4.41 |
| NC(=O)N(O)[C@@H]1COc2cc(OCc3ccccc3)ccc21 [SB202235] | > 90 |
| CCCCC(CC)COC(=O)COc1ccc(Cl)cc1C (stereo not drawn) [MCPA-2-ethylhexyl] | > 90 |

| SMILES | CC50 at 24 h [µM] |
| --- | --- |
| CCOc1ccc(C[C@H]2NC(=O)CCSSC[C@@H](C(=O)N3CCC[C@H]3C(=O)N[C@@H](CCCN)C(=O)NCC(N)=O)NC(=O)[C@H](CC(N)=O)NC(=O)[C@H]([C@@H](C)O)NC(=O)[C@H]([C@@H](C)CC)NC2=O)cc1 [Atosiban] ([Mpa][dY](Et)ITNCP[Orn]G-NH2; disulfide 1-6) | > 50 |
| CC1CCC(C(C)(C)S)C(=O)C1 (stereo not drawn) [p-Mentha-8-thiol-3-one] | > 90 |
| NC(=O)CCCCC1CCSS1 (stereo not drawn) [alpha-Lipoic acid amide] | > 50 |
| CCSC(=O)N(CC)CC [Ethiolate] | > 90 |
| CCCCCCCCCC(=O)OC [Methyl decanoate] | > 90 |
| Cc1ccccc1CO[C@@H]1C[C@@]2(C(C)C)CC[C@]1(C)O2 (racemic) [Cinmethylin] | > 90 |
| O=c1c2ccccc2[se]n1-c1ccccc1 [Ebselen] | 19.6 |
| COC(=O)C1CC(=O)C(C(=O)OC)CC1=O (stereo not drawn) [Dimethyl succinylsuccinate] | > 5 |
| O=C(O)c1cc(O)c2c3nc4ccccc4oc-3cc(=O)c2n1 [Pirenoxine sodium] | > 50 |
| CO/N=C(\C(=O)N[C@@H]1C(=O)N2C(C(=O)O)=C(CSc3cnns3)CS[C@H]12)c1csc(N)n1 [Cefuzonam hydrochloride] | > 50 |
| COc1cc(C(=O)N2CCOCC2)cc(OC)c1OC [Trimetozine] | > 50 |
| CC(C)[C@@H]1CC[C@@H](C)C[C@H]1OC(=O)c1ccccc1O [Menthyl salicylate] | > 50 |
| COC(=O)C1=C(C)NC(C)=C(C(=O)OC(C)(C)CN(C)CCC(c2ccccc2)c2ccccc2)C1c1cccc([N+](=O)[O-])c1 (stereo not drawn) [lercanidipine hydrochloride] | 8.65 |
| Clc1cc(Cl)nc(Cl)n1 [2,4,6-Trichloropyrimidine] | > 90 |
| CC1(C)CC(N)CC(C)(CN)C1 (stereo not drawn) [Isophorone diamine] | > 90 |
| CC1=NN(c2cc(S(=O)(=O)O)ccc2Cl)C(=O)C1N=Nc1ccccc1 (stereo not drawn) [C.I. Acid Yellow 34, monosodium salt] | 92.1 |
| CC1COc2c(N3CCN(C)CC3)c(F)cc3c(=O)c(C(=O)O)cn1c23 (stereo not drawn) [Ofloxacin] | > 50 |
| Nc1nnc(-c2ccc([N+](=O)[O-])o2)o1 [2-Amino-5-(5-nitro-2-furyl)-1,3,4-oxadiazole] | 59 |
| CC(C)(C)c1csc(-c2cc3cc(OCc4ccccc4CC(=O)O)ccc3o2)n1 [FR150011] | 79.7 |
| CCCCO [1-Butanol] | > 90 |
| COC(=O)c1cccnc1 [Methyl nicotinate] | > 90 |
| C1COCO1 [1,3-Dioxolane] | > 90 |

Same assay, conditions: rat, gh3-tre-luc cells, AC50 (uM) modified / 1000, Tox21_110001=Tox21_111607; viability, 1 nM T3 present, 24 h

| SMILES | CC50 at 24 h [µM] |
| --- | --- |
| CC1OC(C)OC(C)O1 (stereo not drawn) [Paraldehyde] | > 50 |

Same assay, conditions: rat, gh3-tre-luc cells, AC50 (uM) modified / 1000, Tox21_110001=Tox21_111815; viability, 1 nM T3 present, 24 h

| SMILES | CC50 at 24 h [µM] |
| --- | --- |
| CC(C)C(Br)C(=O)NC(N)=O (stereo not drawn) [Bromisovalum] | > 50 |

Same assay, conditions: rat, gh3-tre-luc cells, AC50 (uM) modified / 1000, Tox21_110001=Tox21_111908; viability, 1 nM T3 present, 24 h

| SMILES | CC50 at 24 h [µM] |
| --- | --- |
| CCCC(=O)OC(C(Cl)(Cl)Cl)P(=O)(OC)OC (stereo not drawn) [Butonate] | > 50 |

Same assay, conditions: rat, gh3-tre-luc cells, AC50 (uM) modified / 1000, Tox21_110001=Tox21_112871; viability, 1 nM T3 present, 24 h

| SMILES | CC50 at 24 h [µM] |
| --- | --- |
| O=C(O)CCCO [Sodium 4-hydroxybutanoate] | > 100 |

Same assay, conditions: rat, gh3-tre-luc cells, AC50 (uM) modified / 1000, Tox21_110001=Tox21_200120; viability, 1 nM T3 present, 24 h

| SMILES | CC50 at 24 h [µM] |
| --- | --- |
| O=Cc1ccc2c(c1)OCO2 [Piperonal] | > 90 |

Same assay, conditions: rat, gh3-tre-luc cells, AC50 (uM) modified / 1000, Tox21_110001=Tox21_200376; viability, 1 nM T3 present, 24 h

| SMILES | CC50 at 24 h [µM] |
| --- | --- |
| Nc1ccc(-c2ccccc2)cc1 [4-Biphenylamine] | > 90 |

Same assay, conditions: rat, gh3-tre-luc cells, AC50 (uM) modified / 1000, Tox21_110001=Tox21_200490; viability, 1 nM T3 present, 24 h

| SMILES | CC50 at 24 h [µM] |
| --- | --- |
| O=C1CCCO1 [4-Butyrolactone] | > 90 |

Same assay, conditions: rat, gh3-tre-luc cells, AC50 (uM) modified / 1000, Tox21_110001=Tox21_201157; viability, 1 nM T3 present, 24 h

| SMILES | CC50 at 24 h [µM] |
| --- | --- |
| CC(C)CC(C)N (stereo not drawn) [1,3-Dimethylbutylamine] | > 90 |

Same assay, conditions: rat, gh3-tre-luc cells, AC50 (uM) modified / 1000, Tox21_110001=Tox21_301204; viability, 1 nM T3 present, 24 h

| SMILES | CC50 at 24 h [µM] |
| --- | --- |
| NNCCO [2-Hydroxyethylhydrazine] | > 90 |

Same assay, conditions: rat, gh3-tre-luc cells, AC50 (uM) modified / 1000, Tox21_110001=Tox21_301299; viability, 1 nM T3 present, 24 h

| SMILES | CC50 at 24 h [µM] |
| --- | --- |
| CC1OC(C)OC(C)O1 (stereo not drawn) [Paraldehyde] | > 90 |

Same assay, conditions: rat, gh3-tre-luc cells, AC50 (uM) modified / 1000, Tox21_110001=Tox21_302421; viability, 1 nM T3 present, 24 h

| SMILES | CC50 at 24 h [µM] |
| --- | --- |
| CC(Cl)COP(=O)(OCC(C)Cl)OCC(C)Cl (stereo not drawn) [Tris(2-chloropropyl) phosphate] | > 90 |
